From ChEMBL document CHEMBL1212822, “Synthesis, fluorine-18 radiolabeling, and biological evaluation of N-((E)-4-fluorobut-2-en-1-yl)-2beta-carbomethoxy-3beta-(4'-halophenyl)nortropanes: candidate radioligands for in vivo imaging of the brain dopamine transporter with positron emission tomography” (J Med Chem, 2010)

Legend:
[1] = molecular target: Sodium-dependent dopamine transporter (Homo sapiens, UniProt Q01959)
[2] = molecular target: Sodium-dependent serotonin transporter (Homo sapiens, UniProt P31645)
Chain of Sodium-dependent serotonin transporter (P31645 whole entry): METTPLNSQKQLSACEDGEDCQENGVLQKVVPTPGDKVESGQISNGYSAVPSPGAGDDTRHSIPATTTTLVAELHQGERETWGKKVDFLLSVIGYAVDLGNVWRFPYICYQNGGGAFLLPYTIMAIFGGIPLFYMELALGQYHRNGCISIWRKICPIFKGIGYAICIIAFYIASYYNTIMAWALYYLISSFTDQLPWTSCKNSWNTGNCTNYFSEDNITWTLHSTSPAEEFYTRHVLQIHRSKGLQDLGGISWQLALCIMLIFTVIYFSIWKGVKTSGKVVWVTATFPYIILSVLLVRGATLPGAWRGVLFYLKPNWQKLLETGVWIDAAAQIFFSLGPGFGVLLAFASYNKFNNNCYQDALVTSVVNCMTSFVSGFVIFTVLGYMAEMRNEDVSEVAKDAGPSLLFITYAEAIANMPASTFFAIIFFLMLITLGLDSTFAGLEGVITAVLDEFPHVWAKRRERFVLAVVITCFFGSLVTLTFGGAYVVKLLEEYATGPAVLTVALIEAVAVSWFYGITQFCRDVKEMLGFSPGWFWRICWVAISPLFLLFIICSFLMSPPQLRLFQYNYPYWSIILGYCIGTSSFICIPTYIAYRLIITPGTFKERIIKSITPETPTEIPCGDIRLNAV

[3] = molecular target: Sodium-dependent noradrenaline transporter (Homo sapiens, UniProt P23975)
Chain of Sodium-dependent noradrenaline transporter (P23975 whole entry): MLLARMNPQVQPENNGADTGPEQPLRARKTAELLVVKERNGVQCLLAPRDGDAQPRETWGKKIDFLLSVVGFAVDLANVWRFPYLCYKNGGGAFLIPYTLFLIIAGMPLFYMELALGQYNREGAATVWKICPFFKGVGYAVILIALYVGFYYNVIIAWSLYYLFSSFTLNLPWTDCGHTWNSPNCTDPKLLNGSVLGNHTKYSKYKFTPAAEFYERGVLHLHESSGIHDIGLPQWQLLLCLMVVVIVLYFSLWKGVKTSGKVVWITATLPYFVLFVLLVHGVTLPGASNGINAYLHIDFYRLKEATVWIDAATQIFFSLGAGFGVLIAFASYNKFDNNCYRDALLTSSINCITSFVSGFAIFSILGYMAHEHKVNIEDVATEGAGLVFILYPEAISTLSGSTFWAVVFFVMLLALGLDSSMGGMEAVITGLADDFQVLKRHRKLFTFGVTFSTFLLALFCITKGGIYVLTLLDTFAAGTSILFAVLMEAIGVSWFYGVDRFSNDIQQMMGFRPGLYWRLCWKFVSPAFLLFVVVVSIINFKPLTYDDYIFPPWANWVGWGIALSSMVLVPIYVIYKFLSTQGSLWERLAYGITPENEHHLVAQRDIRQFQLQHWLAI
Description: Displacement of [3H]nisoxetine from human NET

Chain of Sodium-dependent dopamine transporter (Q01959 whole entry): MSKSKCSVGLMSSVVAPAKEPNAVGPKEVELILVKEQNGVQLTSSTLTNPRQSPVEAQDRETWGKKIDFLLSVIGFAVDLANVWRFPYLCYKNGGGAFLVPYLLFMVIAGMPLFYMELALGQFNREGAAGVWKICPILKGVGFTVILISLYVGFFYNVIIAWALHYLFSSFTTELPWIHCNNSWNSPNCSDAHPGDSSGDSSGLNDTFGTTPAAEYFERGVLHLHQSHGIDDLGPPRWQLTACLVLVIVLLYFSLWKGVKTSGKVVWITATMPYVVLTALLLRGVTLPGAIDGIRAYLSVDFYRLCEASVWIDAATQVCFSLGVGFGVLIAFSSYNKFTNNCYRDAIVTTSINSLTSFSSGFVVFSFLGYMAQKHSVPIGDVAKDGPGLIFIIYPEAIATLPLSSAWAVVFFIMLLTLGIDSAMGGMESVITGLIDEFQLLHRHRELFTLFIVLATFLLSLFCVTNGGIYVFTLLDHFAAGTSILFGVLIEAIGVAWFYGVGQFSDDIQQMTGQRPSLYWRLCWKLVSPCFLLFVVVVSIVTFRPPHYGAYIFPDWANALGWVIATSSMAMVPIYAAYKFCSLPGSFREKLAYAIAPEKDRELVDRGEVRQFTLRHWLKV

Row | SMILES | Ki [1] [nM] | Ki [2] [nM] | Ki [3] [nM]
1 | COC(=O)[C@@H]1C2CCC(C[C@@H]1c1ccc(F)cc1)N2C/C=C/CF (stereo partly drawn) | 9.5 |  | 
2 | COC(=O)[C@@H]1C2CCC(C[C@@H]1c1ccc(Br)cc1)N2C/C=C/CF (stereo partly drawn) |  | 8.5 | 87
3 | COC(=O)[C@@H]1C2CCC(C[C@@H]1c1ccc(I)cc1)N2C/C=C/CF (stereo partly drawn) | 0.5 | 2.2 | 
4 | COC(=O)[C@@H]1C2CCC(C[C@@H]1c1ccc(C)cc1)N2C/C=C/CF (stereo partly drawn) | 2.7 | 147 | 265
